# Laboratory results reported in PMC6002439, “Inhibitory influence of natural flavonoids on human protein kinase CK2 isoforms: effect of the regulatory subunit” (Molecular and Cellular Biochemistry, 2017).
# Target: T1, CK2α2β2 (Homo sapiens, UniProt P68400)
# T1 construct: GST (N); made in house; host or cells: E. coli BL21(DE3)trxB
# Assay: CK2 activity, phosphorylation of yeast P2B protein substrate, CK2α2β2 holoenzyme
# Type: biochemical
# Details: 10 μM yeast P2B as substrate, 20 µM ATP
# Protocol: (§1) CK2α2β2 and CK2α′2β2 holoenzymes were purified as described elsewhere. Briefly, both catalytic subunits were overexpressed as GST fusion proteins, whereas the regulatory subunit was expressed as His-tagged protein. E. coli BL21(DE3)trxB cells (Novagen) harboring the plasmid pGEX-3X::CSNK2A1, pGEX-3X::CSNK2A2 or pET28a::CSNK2B were grown until OD600 = 0.6 at 37 °C. Next, IPTG was added to the final concentration of 0.2 mM; cultures were continued at room temperature for 4 h and then centrifuged at 5000×g for 10 min. Obtained bacterial pellets were mixed prior to lysis. Cells were disrupted by sonication and the supernatant was purified using glutathione-Sepharose (Pharmacia Biotech). Fractions containing the CK2 holoenzyme were pooled and dialysed against 50 mM Tris/HCl buffer pH 7.5 supplemented with 6 mM β-mercaptoethanol and 30% glycerol. The obtained protein preparations were used in enzymatic assays.
# (§2) CK2 activity was determined in a standard reaction mixture (40 μL of final volume) containing 20 mM Tris–HCl buffer, pH 7.5, 15 mM MgCl2, 6 mM β-mercaptoethanol, and 20 μM [γ-^32P]ATP (specific radioactivity 500–1000 cpm/pmol) in the presence of 10 μM yeast P2B as substrate. Incubation was performed at 37 °C for 15 min. Afterwards, the reaction was terminated by adding 7 μL of SDS-PAGE loading buffer. Reaction mixtures were resolved in SDS-PAGE followed by Coomassie blue staining and autoradiography. The phosphate incorporation level in the P2B protein was estimated by cutting off the corresponding band and measuring the radioactivity in a scintillation counter (Perkin-Elmer).
# T1 sequence (P68400 whole entry): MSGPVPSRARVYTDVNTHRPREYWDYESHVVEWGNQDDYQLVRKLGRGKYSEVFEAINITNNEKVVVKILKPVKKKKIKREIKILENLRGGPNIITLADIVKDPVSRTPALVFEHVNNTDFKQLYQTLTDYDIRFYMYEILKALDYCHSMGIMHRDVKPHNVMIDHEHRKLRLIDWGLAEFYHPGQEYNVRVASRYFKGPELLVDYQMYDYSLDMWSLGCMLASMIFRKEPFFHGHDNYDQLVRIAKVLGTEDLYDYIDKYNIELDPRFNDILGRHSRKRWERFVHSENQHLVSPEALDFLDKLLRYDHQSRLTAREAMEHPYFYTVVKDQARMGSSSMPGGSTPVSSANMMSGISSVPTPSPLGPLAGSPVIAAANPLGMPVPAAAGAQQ
# T1 sequence (P67870 whole entry partner): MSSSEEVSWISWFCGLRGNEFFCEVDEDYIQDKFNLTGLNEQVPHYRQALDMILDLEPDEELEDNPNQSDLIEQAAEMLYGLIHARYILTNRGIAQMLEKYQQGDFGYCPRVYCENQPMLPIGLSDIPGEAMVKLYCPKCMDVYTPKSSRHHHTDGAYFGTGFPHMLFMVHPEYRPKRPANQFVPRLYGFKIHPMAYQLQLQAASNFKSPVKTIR
SMILES,IC50 [µM],"IC50 CK2α2β2, P2B"
"O=c1cc(-c2ccc(O)c(O)c2)oc2cc(OC3OC(CO)C(O)C(O)C3O)cc(O)c12 (stereo not shown) [Compound 5a, luteolin 7-O-glucoside]",31 ± 2.3,
"O=c1cc(-c2ccc(O)c(O)c2)oc2cc(OC3OC(CO)C(O)C(O)C3O)c(O)c(O)c12 (stereo not shown) [Compound 5b, 6-hydroxyluteolin 7-O-glucoside]",> 40,
COc1c(-c2ccc(O)cc2)oc2cc(OC3OC(CO)C(O)C(O)C3O)cc(O)c2c1=O (stereo not shown) [Compound 6a],> 40,without any inhibition
COc1c(-c2ccc(O)cc2)oc2cc(OC3OC(C(=O)O)C(O)C(O)C3O)cc(O)c2c1=O (stereo not shown) [Compound 6b],9.9 ± 0.8,

# Target: T2, CK2α′2β2 (Homo sapiens, UniProt P19784)
# T2 construct: GST (N); made in house; host or cells: E. coli BL21(DE3)trxB
# Assay: CK2 activity, phosphorylation of yeast P2B protein substrate, CK2α′2β2 holoenzyme
# Type: biochemical
# Details: 10 μM yeast P2B as substrate, 20 µM ATP
# Protocol: as §1, §2
# T2 sequence (P19784 whole entry): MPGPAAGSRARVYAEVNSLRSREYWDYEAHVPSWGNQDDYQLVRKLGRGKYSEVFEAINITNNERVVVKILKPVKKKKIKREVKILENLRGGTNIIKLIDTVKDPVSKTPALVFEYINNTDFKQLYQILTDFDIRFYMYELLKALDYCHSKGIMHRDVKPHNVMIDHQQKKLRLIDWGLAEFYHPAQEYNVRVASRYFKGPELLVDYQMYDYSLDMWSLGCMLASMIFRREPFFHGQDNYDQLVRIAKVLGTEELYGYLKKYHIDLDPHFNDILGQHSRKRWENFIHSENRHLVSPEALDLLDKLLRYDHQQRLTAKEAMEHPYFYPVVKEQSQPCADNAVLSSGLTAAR
# T2 sequence (P67870 whole entry partner): as the sequence (P67870 whole entry partner) above
SMILES,IC50 [µM],"IC50 CK2α′2β2, P2B"
"O=c1cc(-c2ccc(O)c(O)c2)oc2cc(OC3OC(CO)C(O)C(O)C3O)cc(O)c12 (stereo not shown) [Compound 5a, luteolin 7-O-glucoside]",9.5 ± 0.7,
"O=c1cc(-c2ccc(O)c(O)c2)oc2cc(OC3OC(CO)C(O)C(O)C3O)c(O)c(O)c12 (stereo not shown) [Compound 5b, 6-hydroxyluteolin 7-O-glucoside]",3.2 ± 0.4,
COc1c(-c2ccc(O)cc2)oc2cc(OC3OC(CO)C(O)C(O)C3O)cc(O)c2c1=O (stereo not shown) [Compound 6a],> 40,without any inhibition
COc1c(-c2ccc(O)cc2)oc2cc(OC3OC(C(=O)O)C(O)C(O)C3O)cc(O)c2c1=O (stereo not shown) [Compound 6b],3.5 ± 0.1,

# Target: T1, CK2α2β2
# Assay: CK2 activity, phosphorylation of synthetic peptide […], CK2α2β2 holoenzyme
# Type: biochemical
# Details: 50 μM synthetic peptide as substrate, 20 µM ATP
# Protocol: as §1, §2
# (§3) Phosphorylation of the peptide substrate (50 μM) was terminated by the addition of 10% orthophosphoric acid, and aliquots were spotted onto phosphocellulose filters (Whatmann P81). Filters were washed with 1% orthophosphoric acid three times and dried before counting in scintillation counter.
row,SMILES,IC50 [µM]
1,"O=c1cc(-c2ccc(O)c(O)c2)oc2cc(OC3OC(CO)C(O)C(O)C3O)cc(O)c12 (stereo not shown) [Compound 5a, luteolin 7-O-glucoside]",9 ± 0.5
2,"O=c1cc(-c2ccc(O)c(O)c2)oc2cc(OC3OC(CO)C(O)C(O)C3O)c(O)c(O)c12 (stereo not shown) [Compound 5b, 6-hydroxyluteolin 7-O-glucoside]",6.2 ± 0.3
3,COc1c(-c2ccc(O)cc2)oc2cc(OC3OC(CO)C(O)C(O)C3O)cc(O)c2c1=O (stereo not shown) [Compound 6a],> 40
4,COc1c(-c2ccc(O)cc2)oc2cc(OC3OC(C(=O)O)C(O)C(O)C3O)cc(O)c2c1=O (stereo not shown) [Compound 6b],5 ± 0.2

# Target: T2, CK2α′2β2
# Assay: CK2 activity, phosphorylation of synthetic peptide […], CK2α′2β2 holoenzyme
# Type: biochemical
# Details: 50 μM synthetic peptide as substrate, 20 µM ATP
# Protocol: as §1, §2, §3
row,SMILES,IC50 [µM]
1,"O=c1cc(-c2ccc(O)c(O)c2)oc2cc(OC3OC(CO)C(O)C(O)C3O)cc(O)c12 (stereo not shown) [Compound 5a, luteolin 7-O-glucoside]",5.7 ± 0.06
2,"O=c1cc(-c2ccc(O)c(O)c2)oc2cc(OC3OC(CO)C(O)C(O)C3O)c(O)c(O)c12 (stereo not shown) [Compound 5b, 6-hydroxyluteolin 7-O-glucoside]",3.6 ± 0.04
3,COc1c(-c2ccc(O)cc2)oc2cc(OC3OC(CO)C(O)C(O)C3O)cc(O)c2c1=O (stereo not shown) [Compound 6a],> 40
4,COc1c(-c2ccc(O)cc2)oc2cc(OC3OC(C(=O)O)C(O)C(O)C3O)cc(O)c2c1=O (stereo not shown) [Compound 6b],5.3 ± 0.3

# Tested on: CK2α
# Assay: not given
# Set-up: method as in PMID 28043654
# Details: 10 μM yeast P2B as substrate, 20 µM ATP; ref [23]; cited from earlier work
row,SMILES,IC50 [µM]
1,"O=c1cc(-c2ccc(O)c(O)c2)oc2cc(OC3OC(CO)C(O)C(O)C3O)cc(O)c12 (stereo not shown) [Compound 5a, luteolin 7-O-glucoside]",17.5 ± 1.5
2,"O=c1cc(-c2ccc(O)c(O)c2)oc2cc(OC3OC(CO)C(O)C(O)C3O)c(O)c(O)c12 (stereo not shown) [Compound 5b, 6-hydroxyluteolin 7-O-glucoside]",5.8 ± 0.5
3,COc1c(-c2ccc(O)cc2)oc2cc(OC3OC(CO)C(O)C(O)C3O)cc(O)c2c1=O (stereo not shown) [Compound 6a],> 40
4,COc1c(-c2ccc(O)cc2)oc2cc(OC3OC(C(=O)O)C(O)C(O)C3O)cc(O)c2c1=O (stereo not shown) [Compound 6b],> 40

# Tested on: CK2α′
# Assay: not given
# Set-up: method as in PMID 28043654
# Details: 10 μM yeast P2B as substrate, 20 µM ATP; ref [23]; cited from earlier work
row,SMILES,IC50 [µM]
1,"O=c1cc(-c2ccc(O)c(O)c2)oc2cc(OC3OC(CO)C(O)C(O)C3O)cc(O)c12 (stereo not shown) [Compound 5a, luteolin 7-O-glucoside]",0.8 ± 0.1
2,"O=c1cc(-c2ccc(O)c(O)c2)oc2cc(OC3OC(CO)C(O)C(O)C3O)c(O)c(O)c12 (stereo not shown) [Compound 5b, 6-hydroxyluteolin 7-O-glucoside]",0.35 ± 0.07
3,COc1c(-c2ccc(O)cc2)oc2cc(OC3OC(CO)C(O)C(O)C3O)cc(O)c2c1=O (stereo not shown) [Compound 6a],> 40
4,COc1c(-c2ccc(O)cc2)oc2cc(OC3OC(C(=O)O)C(O)C(O)C3O)cc(O)c2c1=O (stereo not shown) [Compound 6b],3 ± 0.2

# Tested on: CK2α
# Assay: not given
# Set-up: method as in PMID 28043654
# Details: 50 μM synthetic peptide as substrate, 20 µM ATP; ref [23]; cited from earlier work
row,SMILES,IC50 [µM]
1,"O=c1cc(-c2ccc(O)c(O)c2)oc2cc(OC3OC(CO)C(O)C(O)C3O)cc(O)c12 (stereo not shown) [Compound 5a, luteolin 7-O-glucoside]",0.1 ± 0.03
2,"O=c1cc(-c2ccc(O)c(O)c2)oc2cc(OC3OC(CO)C(O)C(O)C3O)c(O)c(O)c12 (stereo not shown) [Compound 5b, 6-hydroxyluteolin 7-O-glucoside]",7 ± 0.4
3,COc1c(-c2ccc(O)cc2)oc2cc(OC3OC(CO)C(O)C(O)C3O)cc(O)c2c1=O (stereo not shown) [Compound 6a],> 40
4,COc1c(-c2ccc(O)cc2)oc2cc(OC3OC(C(=O)O)C(O)C(O)C3O)cc(O)c2c1=O (stereo not shown) [Compound 6b],> 40

# Tested on: CK2α′
# Assay: not given
# Set-up: method as in PMID 28043654
# Details: 50 μM synthetic peptide as substrate, 20 µM ATP; ref [23]; cited from earlier work
row,SMILES,IC50 [µM]
1,"O=c1cc(-c2ccc(O)c(O)c2)oc2cc(OC3OC(CO)C(O)C(O)C3O)cc(O)c12 (stereo not shown) [Compound 5a, luteolin 7-O-glucoside]",0.7 ± 0.1
2,"O=c1cc(-c2ccc(O)c(O)c2)oc2cc(OC3OC(CO)C(O)C(O)C3O)c(O)c(O)c12 (stereo not shown) [Compound 5b, 6-hydroxyluteolin 7-O-glucoside]",0.4 ± 0.05
3,COc1c(-c2ccc(O)cc2)oc2cc(OC3OC(CO)C(O)C(O)C3O)cc(O)c2c1=O (stereo not shown) [Compound 6a],> 40
4,COc1c(-c2ccc(O)cc2)oc2cc(OC3OC(C(=O)O)C(O)C(O)C3O)cc(O)c2c1=O (stereo not shown) [Compound 6b],7.7 ± 0.8
